Test results taken from PMC5358098 (ACS chemical neuroscience, 2016).
Read-outs that look alike come from different tables or passages of the source.

Assays:
[1] = target: T1, CB1R (Homo sapiens, UniProt P21554); assay: cell-based; assay type: cell-based
[2] = target: T2, CB1R (Mus musculus, UniProt P47746); assay type: cell-based; details: Neuro2a, 10 min
[3] = test system: CB1R
[4] = test system: CB1R; details: cited from earlier work
[5] = target: T1, CB1R; assay type: cell-based; details: Neuro2a, 30 min
[6] = target: T2, CB1R; assay: Operational model bias analysis, Neuro2a cells; assay type: cell-based; details: for ΔΔlog R β-arrestin1/pPLCβ3: reference 2-AG + GAT100
[7] = target: T2, CB1R; assay: Operational model bias analysis, STHdh^Q7/Q7 cells; details: STHdh^Q7/Q7
[8] = target: T1, CB1R; assay type: cell-based; details: HEK293A, 30 min
[9] = test system: CB1R; assay type: cell-based; details: mean of data for the pathway (Table 3), all cells and orthosteric ligands
[10] = target: T1, CB1R; assay: cell-based; assay type: cell-based; remark: listed apart in the source
[11] = target: T2, CB1R; details: STHdh^Q7/Q7; 1 μM + 500 nM CP55,940
[12] = target: T1, CB1R; assay: cell-based
[13] = test system: CB1R; assay type: cell-based; details: mean of data for the pathway (Table 2), all cells and orthosteric ligands
[14] = test system: hCB1R; assay: Operational model bias analysis, HEK293A cells; assay type: cell-based, human; details: HEK293A; for ΔΔlog R β-arrestin1/cAMP / ΔΔlog R β-arrestin1/pPLCβ3: reference 2-AG + GAT100
[15] = target: T2, CB1R; assay type: cell-based; details: Neuro2a, 10 min; remark: listed apart in the source
[16] = target: T1, CB1R; assay type: cell-based; details: HEK293A, 10 min
[17] = target: T1, CB1R; assay: [3H]SR141716A equilibrium binding, hCB1R CHO cell membranes
[18] = 500 nM 2-AG + 1 nM-10 μM allosteric modulator
[19] = 500 nM AEA + 1 nM-10 μM allosteric modulator
[20] = 500 nM CP55,940 + 1 nM-10 μM allosteric modulator

T2 sequence (P47746 whole entry): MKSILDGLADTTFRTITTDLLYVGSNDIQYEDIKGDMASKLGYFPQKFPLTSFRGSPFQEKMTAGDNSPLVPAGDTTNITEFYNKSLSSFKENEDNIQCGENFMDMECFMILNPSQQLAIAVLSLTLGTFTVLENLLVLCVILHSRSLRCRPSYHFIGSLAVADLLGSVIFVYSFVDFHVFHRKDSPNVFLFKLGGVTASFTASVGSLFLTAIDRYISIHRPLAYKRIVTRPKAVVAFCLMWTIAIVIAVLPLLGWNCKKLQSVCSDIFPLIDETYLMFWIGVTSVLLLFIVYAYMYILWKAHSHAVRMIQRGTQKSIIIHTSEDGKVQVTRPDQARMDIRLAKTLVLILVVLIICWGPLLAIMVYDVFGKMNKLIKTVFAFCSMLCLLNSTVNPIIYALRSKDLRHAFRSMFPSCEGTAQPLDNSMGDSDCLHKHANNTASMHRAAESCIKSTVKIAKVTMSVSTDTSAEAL
T1 sequence (P21554 whole entry): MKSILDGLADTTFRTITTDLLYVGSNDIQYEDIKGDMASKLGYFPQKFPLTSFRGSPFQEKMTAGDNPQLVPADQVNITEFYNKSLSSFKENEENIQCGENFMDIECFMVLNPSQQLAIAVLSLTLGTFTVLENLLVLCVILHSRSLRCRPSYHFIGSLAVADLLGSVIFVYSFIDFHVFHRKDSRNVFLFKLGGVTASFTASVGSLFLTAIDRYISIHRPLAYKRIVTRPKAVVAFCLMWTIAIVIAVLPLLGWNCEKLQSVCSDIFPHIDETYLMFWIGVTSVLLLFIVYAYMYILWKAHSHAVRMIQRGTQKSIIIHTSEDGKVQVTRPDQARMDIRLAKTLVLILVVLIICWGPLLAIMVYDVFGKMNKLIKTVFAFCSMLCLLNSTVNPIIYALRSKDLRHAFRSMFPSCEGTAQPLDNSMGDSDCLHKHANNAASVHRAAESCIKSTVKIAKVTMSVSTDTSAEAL

CCc1c(C(=O)NCCc2ccc(N3CCCCC3)cc2)[nH]c2ccc(N=C=S)cc12 [GAT100, 3-ethyl-5-isothiocyanato-N-(4-(piperidin-1-yl)phenethyl)-1H-indole-2-carboxamide]
Emax pPLCβ3/Total PLCβ3, 2-AG ([1]; HEK293A, 1 nM-10 μM 2-AG + 1 μM NAM, 10 min): 0.39 ± 0.02
Emax pPLCβ3/Total PLCβ3, AEA ([1]; HEK293A, 1 nM-10 μM AEA + 1 μM NAM, 10 min): 0.36 ± 0.01
Emax pPLCβ3/Total PLCβ3, CP55,940 ([1]; HEK293A, 1 nM-10 μM CP55,940 + 1 μM NAM, 10 min): 0.39 ± 0.01
IC50 ([1]; IC50, PLCβ3 phosphorylation, CP55,940): 76.6 nM
Emax pPLCβ3/Total PLCβ3, 2-AG ([2]; 1 nM-10 μM 2-AG + 1 μM NAM): 0.34 ± 0.02
Emax pPLCβ3/Total PLCβ3, AEA ([2]; 1 nM-10 μM AEA + 1 μM NAM): 0.37 ± 0.02
Emax pPLCβ3/Total PLCβ3, CP55,940 ([2]; 1 nM-10 μM CP55,940 + 1 μM NAM): 0.39 ± 0.02
Emax, 2-AG (probe dependence summary) ([3]; mean of data for 2-AG (Tables 1-4)): 0.31 ± 0.02
Emax, AEA (probe dependence summary) ([3]; mean of data for AEA (Tables 1-4)): 0.36 ± 0.03
Emax, CP55,940 (probe dependence summary) ([3]; mean of data for CP55,940 (Tables 1-4)): 0.33 ± 0.02
Emax, HEK293A (cell dependence summary) ([3]; mean of data for HEK293A (Tables 1-3)): 0.34 ± 0.01
Emax, Neuro2a (cell dependence summary) ([3]; mean of data for Neuro2a (Tables 1-3)): 0.32 ± 0.01
Emax, STHdh^Q7/Q7 (cell dependence summary) ([3]; mean of data for STHdh^Q7/Q7 (Tables 1-3)): 0.34 ± 0.02
effect on CP55,940 equilibrium binding by CB1R [4]: increase CP55,940 equilibrium binding
Emax (BRETEff), 2-AG ([5]; 1 nM-10 μM 2-AG + 1 μM NAM): 0.25 ± 0.03
Emax (BRETEff), AEA ([5]; 1 nM-10 μM AEA + 1 μM NAM): 0.29 ± 0.02
Emax (BRETEff), CP55,940 ([5]; 1 nM-10 μM CP55,940 + 1 μM NAM): 0.34 ± 0.02
BF β-arrestin1/pERK1/2 [6, 18]: 1.0
BF β-arrestin1/pPLCβ3 [6, 18]: 1.0
ΔΔlog R β-arrestin1/pPLCβ3 [6, 18]: 0.0 ± 0.1
BF β-arrestin1/pERK1/2 [6, 19]: 7.9
BF β-arrestin1/pPLCβ3 [6, 19]: 15.8
ΔΔlog R β-arrestin1/pPLCβ3 [6, 19]: 1.2 ± 0.1
BF β-arrestin1/pERK1/2 [6, 20]: 10.0
BF β-arrestin1/pPLCβ3 [6, 20]: 3.2
ΔΔlog R β-arrestin1/pPLCβ3 [6, 20]: 0.5 ± 0.2
BF β-arrestin1/pERK1/2 [7, 18]: 1.0
BF β-arrestin1/pPLCβ3 [7, 18]: 1.0
BF β-arrestin1/pERK1/2 [7, 19]: 1.3
BF β-arrestin1/pPLCβ3 [7, 19]: 7.9
BF β-arrestin1/pERK1/2 [7, 20]: 0.6
BF β-arrestin1/pPLCβ3 [7, 20]: 5.0
Emax (BRETEff), 2-AG ([8]; 1 nM-10 μM 2-AG + 1 μM NAM): 0.29 ± 0.01
Emax (BRETEff), AEA ([8]; 1 nM-10 μM AEA + 1 μM NAM): 0.37 ± 0.03
Emax (BRETEff), CP55,940 ([8]; 1 nM-10 μM CP55,940 + 1 μM NAM): 0.30 ± 0.04
Emax, ERK (pathway ligand bias summary) [9]: 0.32 ± 0.01
IC50 [10]: 741 nM
effect on cAMP levels in the absence of orthosteric agonists (inverse agonism) ([10]; HEK-CRE, 10 μM forskolin + 1 nM to 10 μM compound alone, 4 h): did not affect cAMP accumulation
IC50 ([10]; IC50, cAMP, CP55,940): 834 nM
Emax, cAMP (pathway ligand bias summary) ([10]; mean of data for the pathway (Table 4), cAMP Emax divided by 100): 0.16 ± 0.04
effect on CP55,940-induced CB1R internalization (fraction of CB1R at the plasma membrane) [11]: reversed this effect
IC50 [12]: 35.8 nM
Emax, β-arrestin1 (pathway ligand bias summary) ([12]; mean of data for the pathway (Table 1), all cells and orthosteric ligands): 0.30 ± 0.01
Emax, PLCβ3 (pathway ligand bias summary) [13]: 0.38 ± 0.01
BF β-arrestin1/cAMP [14, 18]: 1.0
BF β-arrestin1/pERK1/2 [14, 18]: 1.0
BF β-arrestin1/pPLCβ3 [14, 18]: 1.0
ΔΔlog R β-arrestin1/cAMP [14, 18]: 0.0 ± 0.1
ΔΔlog R β-arrestin1/pPLCβ3 [14, 18]: 0.0
BF β-arrestin1/cAMP [14, 19]: 0.8
BF β-arrestin1/pERK1/2 [14, 19]: 0.3
BF β-arrestin1/pPLCβ3 [14, 19]: 0.1
ΔΔlog R β-arrestin1/cAMP [14, 19]: –0.1 ± 0.1
ΔΔlog R β-arrestin1/pPLCβ3 [14, 19]: –1.2 ± 0.8
BF β-arrestin1/cAMP [14, 20]: 1.3
BF β-arrestin1/pERK1/2 [14, 20]: 0.6
BF β-arrestin1/pPLCβ3 [14, 20]: 0.6
ΔΔlog R β-arrestin1/cAMP [14, 20]: 0.1 ± 0.1
ΔΔlog R β-arrestin1/pPLCβ3 [14, 20]: –0.2 ± 0.1
Emax pERK1/2/Total ERK1/2, 2-AG ([15]; 1 nM-10 μM 2-AG + 1 μM NAM): 0.31 ± 0.02
Emax pERK1/2/Total ERK1/2, AEA ([15]; 1 nM-10 μM AEA + 1 μM NAM): 0.28 ± 0.02
Emax pERK1/2/Total ERK1/2, CP55,940 ([15]; 1 nM-10 μM CP55,940 + 1 μM NAM): 0.33 ± 0.02
Emax pERK1/2/Total ERK1/2, 2-AG ([16]; 1 nM-10 μM 2-AG + 1 μM NAM): 0.33 ± 0.02
Emax pERK1/2/Total ERK1/2, AEA ([16]; 1 nM-10 μM AEA + 1 μM NAM): 0.31 ± 0.02
Emax pERK1/2/Total ERK1/2, CP55,940 ([16]; 1 nM-10 μM CP55,940 + 1 μM NAM): 0.29 ± 0.02
EC50 [17]: 410 nM
[3H]SR141716A binding at 10 μM ([17]; 10 μM): did not completely abrogate
fold greater potency than Org27569 as inhibitor of [3H]SR141716A binding ([17]; EC50 ratio): ~ 6 fold
Emax ([17]; read-out: Emax, [3H]SR141716A binding): 22.6%
